Laboratory results from US8329913B2, “Carbazole derivative, solvate thereof, or pharmaceutically acceptable salt thereof” (Zeria Pharmaceutical Co., Ltd., priority 2004, dated 2012).

Target: T1, human PPARγ (Homo sapiens, UniProt P37231)
T1 construct: 1.6 kb of fragment of the prepared plasmid pGEMT-hPPARg2 including human PPARγ gene; expressed in transfected cells; host or cells: CV-1 cells, transient transfection with pCI-hPPARg2, pCI-hRXRa and the reporter pGL3-PPRE3-TK
T1 sequence (P37231 1-505): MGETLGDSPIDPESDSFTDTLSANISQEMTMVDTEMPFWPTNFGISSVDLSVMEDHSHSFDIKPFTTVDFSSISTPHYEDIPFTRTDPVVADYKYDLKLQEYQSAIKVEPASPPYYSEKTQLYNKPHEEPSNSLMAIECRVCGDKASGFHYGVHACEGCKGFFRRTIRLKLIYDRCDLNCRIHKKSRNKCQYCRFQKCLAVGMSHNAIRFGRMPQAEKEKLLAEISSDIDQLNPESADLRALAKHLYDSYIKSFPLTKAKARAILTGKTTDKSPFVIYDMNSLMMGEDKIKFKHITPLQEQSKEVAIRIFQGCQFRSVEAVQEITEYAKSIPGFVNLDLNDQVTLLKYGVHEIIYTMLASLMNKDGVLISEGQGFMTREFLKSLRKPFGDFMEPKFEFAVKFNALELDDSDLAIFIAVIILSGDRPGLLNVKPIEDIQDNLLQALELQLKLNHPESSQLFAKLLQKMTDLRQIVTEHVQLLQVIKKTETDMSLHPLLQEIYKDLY
T1 sequence (P19793 1-462 partner): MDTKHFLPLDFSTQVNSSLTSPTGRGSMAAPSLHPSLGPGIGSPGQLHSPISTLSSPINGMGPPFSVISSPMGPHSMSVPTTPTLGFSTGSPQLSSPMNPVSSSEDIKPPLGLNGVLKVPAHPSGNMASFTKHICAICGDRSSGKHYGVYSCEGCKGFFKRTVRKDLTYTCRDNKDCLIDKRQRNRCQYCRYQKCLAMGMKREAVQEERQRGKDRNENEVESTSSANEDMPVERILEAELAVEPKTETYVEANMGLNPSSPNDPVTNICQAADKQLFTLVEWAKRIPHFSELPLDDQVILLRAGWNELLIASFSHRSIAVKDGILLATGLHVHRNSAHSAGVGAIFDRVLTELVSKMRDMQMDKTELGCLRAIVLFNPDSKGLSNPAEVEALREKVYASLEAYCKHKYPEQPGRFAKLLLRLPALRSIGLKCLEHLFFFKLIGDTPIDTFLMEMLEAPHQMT
Experiment: Human PPARγ antagonist assay (luciferase reporter in transfected CV-1 cells)
Assay type: cell-based
Details: for IC50: CV-1 cells expressing human PPARγ and RXRα with reporter plasmid, pioglitazone 1 μM as stimulant, 24 hours, read-out: Human PPARγ antagonist activities, Inhibition IC50
Method: CV-1 cells (96 well plate), where human PPARγ and RXRα has expressed in the transient transfection of reporter plasmid (see reference 5a) were washed once with PBS (100 μL/well), and then supplemented with 100 μL/well […], as well as pioglitazone (not limited to pioglitazone shown as an example, but may be any PPARγ agonist) at a final concentration of 1 μM as a stimulant were added, and incubated in a 5% CO2 incubator at 37° C. for 24 hours. After removing the medium, the CV-1 cells were washed once with PBS (100 μL/well), and supplemented with 60 μL/well of 1× Passive Lysis Buffer (manufactured by Promega Corporation). The CV-1 cells were incubated at room temperature for 30 minutes, stirred, and then by using Dual-Luciferase Reporter Assay System (manufactured by Promega Corporation), luciferase activities of firefly and renilla were measured using 1420 ARVO Multilabel Counter (manufactured by Wallac Oy). Also, the same experiments as that described above were respectively carried out for the cases where only the above-mentioned stimulants (100 nM, 1 μM, 10 μM) were used, where only the above-mentioned test compounds were used, or where neither was used (nonsupplemented), and luciferase activities of firefly and renilla were measured. Values corrected by dividing the firefly luciferase activities by the renilla luciferase activities were calculated as specific activities and used for evaluations.
Human PPARγ2 antagonist activities of the test compounds were evaluated by using a percentage (inhibition) where the specific activity in case only […] was added is regarded as 0% and the specific activity in case the test compound and the stimulant were not added is regarded as 100%. Moreover, the concentration of the test compound indicating the inhibition rate of 50% was calculated as the IC50 value. Also, human PPARγ2 agonist activities of the test compounds were evaluated by using a percentage (activity) where the specific activity when nonsupplemented is regarded as 0% and the specific activity in case only 10 μM stimulant was added is regarded as 100%, from the specific activity in case only the test compound is used.
CV-1 cells were cultured in DMEM medium (manufactured by Invitrogen Corporation) including 10% fetal bovine serum (manufactured by Dainippon Pharmaceutical Co., Ltd.) in 225T-Flask (manufactured by Corning Costar). The cells were detached by 0.5 g/L trypsin-0.2 g/L EDTA (ethylene diamine tetra-acetic acid) (manufactured by Invitrogen Corporation), and then suspended in the DMEM medium including 10% fetal bovine serum to a cell concentration of 2×10^5 cells/mL. Thereafter, the cells were seeded into 96 well plate at 2×10^4 cells/0.1 mL/well, incubated in the 5% CO2 incubator at 37° C. overnight, and then the plasmids prepared by the above-mentioned reference 1a, reference 3a, and reference 4a were transfected into cells by using a lipofectamine reagent (manufactured by Invitrogen Corporation) according to the attached manual.
Namely, after CV-1 cells were cultured overnight, the cells were washed with PBS (100 μL/well). Thereafter the cells were incubated for 5 hours at 37° C./5% CO2 in the MEM medium (manufactured by Invitrogen Corporation) including 430 ng/mL of human PPARγ expression plasmid (pCI-hPPARg2) prepared by the reference 1a, 430 ng/mL of human RXRα expression plasmid (pCI-hRXRa) prepared by the reference 3a, and 140 ng/mL of the reporter plasmid (pGL3-PPRE3-TK) prepared by the reference 4a, 10 ng/mL of phRL-TK vector (manufactured by Promega Corporation) and 2 μL/mL of lipofectamine.

Row | Compound | IC50 [nM] | inhibition at 10 µM (at 10 μM test compound, CV-1 cells expressing human PPARγ and RXRα, pioglitazone as stimulant, read-out: Human PPARγ antagonist activities, Inhibition % at 10 μM) [%]
1 | COc1cc(Cn2c3ccccc3c3c(OCCC(C)C(=O)O)cccc32)ccc1OCc1nc(-c2ccccc2)oc1C (single isomer, unassigned) [Example 53, sodium (+)-4-{9-[3-methoxy-4-((5-methyl-2-phenyl-oxazole-4-yl)methoxy)-benzyl]-9H-carbazole-4-yloxy}-2-methyl-butyrate] | 382 | –
2 | COc1cc(Cn2c3ccccc3c3c(OCCCC(=O)O)cccc32)ccc1OCc1nc(-c2ccccc2)oc1C [Example 33] | 1380 | –
3 | CCCCCCC(Oc1cccc2c1c1ccccc1n2Cc1ccc(OCc2nc(-c3ccccc3)oc2C)c(OC)c1)C(=O)O (racemic) [Example 19, (±)-2-{9-[3-methoxy-4-((5-methyl-2-phenyl-oxazole-4-yl)methoxy)-benzyl]-9H-carbazole-4-yloxy}caprylic acid] | 882 | –
4 | COc1cc(Cn2c3ccccc3c3c(OCC(=O)O)cccc32)ccc1OCc1nc(-c2ccco2)oc1C [Example 2, 2-{9-[4-((2-(furan-2-yl)-5-methyl-oxazole-4-yl)methoxy)-3-methoxy-benzyl]-9H-carbazole-4-yloxy}acetic acid] | – | 47.4
5 | COc1cc(Cn2c3ccccc3c3c(OCCCC(=O)O)cccc32)ccc1OCc1nc(-c2ccccc2)oc1C [Example 12, 4-{9-[3-methoxy-4-((5-methyl-2-phenyl-oxazole-4-yl)methoxy)-benzyl]-9H-carbazole-4-yloxy}butyric acid] | 725 | –
6 | CCCC(Oc1cccc2c1c1ccccc1n2Cc1ccc(OCc2nc(-c3ccccc3)oc2C)c(OC)c1)C(=O)O (racemic) [Example 11, (±)-2-{9-[3-methoxy-4-((5-methyl-2-phenyl-oxazole-4-yl)methoxy)-benzyl]-9H-carbazole-4-yloxy}valeric acid] | 281 | –
7 | COc1cc(Cn2c3ccccc3c3c(OCC(=O)O)cccc32)ccc1OCc1nc(-c2ccccc2)oc1C [Example 29] | 2460 | –
8 | COc1cc(Cn2c3ccccc3c3c(OCCC(C)C(=O)O)cccc32)ccc1OCc1nc(-c2ccccc2)oc1C (single isomer, unassigned) [Example 52, sodium (−)-4-{9-[3-methoxy-4-((5-methyl-2-phenyl-oxazole-4-yl)methoxy)-benzyl]-9H-carbazole-4-yloxy}-2-methyl-butyrate] | 173 | –
9 | COc1cc(Cn2c3ccccc3c3c(OC(C(=O)O)c4ccccc4)cccc32)ccc1OCc1nc(-c2ccco2)oc1C (racemic) [Example 6, (±)-2-{9-[4-((2-(furan-2-yl)-5-methyl-oxazole-4-yl)methoxy)-3-methoxy-benzyl]-9H-carbazole-4-yloxy}-2-phenylacetic acid] | 905 | –
10 | COc1cc(Cn2c3ccccc3c3c(OCCCCC(=O)O)cccc32)ccc1OCc1nc(-c2ccccc2)oc1C [Example 20, 5-{9-[3-methoxy-4-((5-methyl-2-phenyl-oxazole-4-yl)methoxy)-benzyl]-9H-carbazole-4-yloxy}valeric acid] | 1600 | –
11 | COc1cc(Cn2c3ccccc3c3c(OCC(=O)O)cccc32)ccc1OCc1nc(-c2ccccc2)oc1C [Example 1, 2-{9-[3-methoxy-4-((5-methyl-2-phenyl-oxazole-4-yl)methoxy)-benzyl]-9H-carbazole-4-yloxy}acetic acid] | 3150 | –
12 | COc1cc(Cn2c3ccccc3c3c(OC(C(=O)O)c4ccccc4)cccc32)ccc1OCc1nc(-c2ccccc2)oc1C (racemic) [Example 26, (±)-2-{9-[3-methoxy-4-((5-methyl-2-phenyl-oxazole-4-yl)methoxy)-benzyl]-9H-carbazole-4-yloxy}-2-phenylacetic acid] | 546 | –

Now from value to compound:

Row | IC50 [nM] | inhibition at 10 µM (at 10 μM test compound, CV-1 cells expressing human PPARγ and RXRα, pioglitazone as stimulant, read-out: Human PPARγ antagonist activities, Inhibition % at 10 μM) [%] | Compound
13 | 30 | – | COc1cc(Cn2c3ccccc3c3c(Oc4ccccc4C(=O)O)cccc32)ccc1OCc1nc(-c2ccccc2)oc1C [Example 47, sodium 2-{9-[3-methoxy-4-((5-methyl-2-phenyloxazole-4-yl)methoxy)-benzyl]-9H-carbazole-4-yloxy}benzoate]
14 | 2190 | – | COc1cc(Cn2c3ccccc3c3c(OC(C(=O)O)c4ccccc4)cccc32)ccc1OCc1nc(-c2ccccc2)oc1C (single isomer, unassigned) [Example 51, sodium (−)-2-{9-[3-methoxy-4-((5-methyl-2-phenyl-oxazole-4-yl)methoxy)-benzyl]-9H-carbazole-4-yloxy}-2-phenylacetate]
15 | 2490 | – | COc1cc(Cn2c3ccccc3c3c(Oc4cccc(C(=O)O)c4)cccc32)ccc1OCc1nc(-c2ccccc2)oc1C [Example 48, sodium 3-{9-[3-methoxy-4-((5-methyl-2-phenyloxazole-4-yl)methoxy)-benzyl]-9H-carbazole-4-yloxy}benzoate]
16 | 308 | – | COc1cc(Cn2c3ccccc3c3c(O[C@H](C(=O)O)C(C)C)cccc32)ccc1OCc1nc(-c2ccccc2)oc1C [Example 40, sodium (S)-2-{9-[3-methoxy-4-((5-methyl-2-phenyl-oxazole-4-yl)methoxy)-benzyl]-9H-carbazole-4-yloxy}-3-methyl-butyrate]
17 | 220 | – | CCC[C@H](Oc1cccc2c1c1ccccc1n2Cc1ccc(OCc2nc(-c3ccccc3)oc2C)c(OC)c1)C(=O)O [Example 41, sodium (S)-2-{9-[3-methoxy-4-((5-methyl-2-phenyl-oxazole-4-yl)methoxy)-benzyl]-9H-carbazole-4-yloxy}valerate]
18 | 509 | – | COc1cc(Cn2c3ccccc3c3c(OCC(C)(C)C(=O)O)cccc32)ccc1OCc1nc(-c2ccncc2)oc1C [Example 35]
19 | 596 | – | COc1cc(Cn2c3ccccc3c3c(OC(C(=O)O)c4ccccc4)cccc32)ccc1OCc1nc(-c2ccccc2)oc1C (racemic) [Example 36]
20 | 484 | – | CC[C@@H](Oc1cccc2c1c1ccccc1n2Cc1ccc(OCc2nc(-c3ccccc3)oc2C)c(OC)c1)C(=O)O [Example 42, sodium (R)-2-{9-[3-methoxy-4-((5-methyl-2-phenyl-oxazole-4-yl)methoxy)-benzyl]-9H-carbazole-4-yloxy}butyrate]
